Reference: publication PMC2572567 (Biochemical pharmacology, 2008)

Tests used:
heart rate = details: Starling heart-lung preparation of the dog; cited from earlier work
BChE in rat heart = BChE in rat heart (Rattus norvegicus, UniProt Q9JKC1); assay: Radiometric cholinesterase assay, BChE activity in cardiac homogenates; assay type: biochemical
[1] = molecular target: T1, muscarinic receptors in heart (Rattus norvegicus, UniProt P10980); assay: [3H]oxotremorine-M displacement assay, cardiac membranes; assay type: binding; details: for [3H]Oxotremorine-M maximum displacement: 1 nM [3H]OXO, 21°C, 90 min, mean ± S.E.
T1 sequence (P10980 1-466): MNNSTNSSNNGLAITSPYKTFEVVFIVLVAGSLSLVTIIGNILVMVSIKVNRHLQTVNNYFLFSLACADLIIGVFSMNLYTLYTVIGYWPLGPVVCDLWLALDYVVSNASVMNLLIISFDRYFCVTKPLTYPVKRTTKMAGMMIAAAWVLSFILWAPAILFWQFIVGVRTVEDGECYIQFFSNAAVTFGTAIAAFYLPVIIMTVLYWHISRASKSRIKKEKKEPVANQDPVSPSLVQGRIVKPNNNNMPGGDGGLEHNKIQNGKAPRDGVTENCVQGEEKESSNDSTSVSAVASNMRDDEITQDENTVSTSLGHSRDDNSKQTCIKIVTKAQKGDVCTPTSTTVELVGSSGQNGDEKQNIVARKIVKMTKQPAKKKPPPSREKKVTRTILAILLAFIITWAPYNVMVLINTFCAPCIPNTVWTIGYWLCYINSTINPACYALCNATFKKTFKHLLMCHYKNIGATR

[2] = test system: muscarinic receptors in cortex; assay: [3H]oxotremorine-M displacement assay, cortical membranes; assay type: binding, rat; details: for [3H]Oxotremorine-M maximum displacement: 1 nM [3H]OXO, 21°C, 90 min, mean ± S.E.
[3] = test system: cardiac muscarinic receptors; details: cited from earlier work
rats [4] = details: cited from earlier work
rats [5] = details: aged versus adult rats; cited from earlier work
AChE in rat heart = molecular target: T2, AChE in rat heart (Rattus norvegicus, UniProt P37136); assay: Radiometric cholinesterase assay, AChE activity in cardiac homogenates; assay type: biochemical; details: heart and cortex (Tables 2 and 3)
T2 sequence (P37136 32-614): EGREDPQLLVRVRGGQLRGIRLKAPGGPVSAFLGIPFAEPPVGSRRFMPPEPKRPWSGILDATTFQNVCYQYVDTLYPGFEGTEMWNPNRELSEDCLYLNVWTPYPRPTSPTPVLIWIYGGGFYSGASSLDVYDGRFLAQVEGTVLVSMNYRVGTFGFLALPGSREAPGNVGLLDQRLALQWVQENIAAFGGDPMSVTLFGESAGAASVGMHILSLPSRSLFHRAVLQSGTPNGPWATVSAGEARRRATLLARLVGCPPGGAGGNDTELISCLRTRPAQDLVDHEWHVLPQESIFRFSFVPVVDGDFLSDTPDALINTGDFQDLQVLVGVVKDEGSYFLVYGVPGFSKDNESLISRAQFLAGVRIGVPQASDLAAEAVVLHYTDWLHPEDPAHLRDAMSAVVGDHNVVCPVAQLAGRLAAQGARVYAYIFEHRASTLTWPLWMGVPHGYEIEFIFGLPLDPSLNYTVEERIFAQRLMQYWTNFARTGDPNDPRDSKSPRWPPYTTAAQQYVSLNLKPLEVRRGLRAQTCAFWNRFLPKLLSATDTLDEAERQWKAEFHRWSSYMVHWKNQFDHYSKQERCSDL

BChE in rat heart, sequence (Q9JKC1 24-597): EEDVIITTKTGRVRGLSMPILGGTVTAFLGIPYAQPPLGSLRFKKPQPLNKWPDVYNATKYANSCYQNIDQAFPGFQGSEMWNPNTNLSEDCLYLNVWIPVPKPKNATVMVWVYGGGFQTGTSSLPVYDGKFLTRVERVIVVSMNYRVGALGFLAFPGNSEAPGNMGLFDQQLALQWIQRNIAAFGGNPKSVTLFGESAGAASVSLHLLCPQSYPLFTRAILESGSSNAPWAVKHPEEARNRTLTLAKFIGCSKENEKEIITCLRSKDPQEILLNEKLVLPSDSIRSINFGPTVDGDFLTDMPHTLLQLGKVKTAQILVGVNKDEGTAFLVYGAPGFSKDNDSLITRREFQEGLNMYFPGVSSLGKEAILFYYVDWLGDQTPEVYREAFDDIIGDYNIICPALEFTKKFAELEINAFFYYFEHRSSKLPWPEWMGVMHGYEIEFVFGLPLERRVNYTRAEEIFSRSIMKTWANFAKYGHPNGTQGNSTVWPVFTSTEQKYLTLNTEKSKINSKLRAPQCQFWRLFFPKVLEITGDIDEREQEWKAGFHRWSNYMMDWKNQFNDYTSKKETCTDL

## C=CC[N+](C)(C)c1ccc(CCC(=O)CCc2ccc([N+](C)(C)CC=C)cc2)cc1.[Br-].[Br-] [BW 284C51, 1,5-bis (allyldimethylammoniumphenyl) pentane-3-dibromide]
Heart rate
  Effect on heart rate: had no effect

## CCOP(=O)(OCC)Oc1nc(Cl)c(Cl)cc1Cl [Chlorpyrifos oxon, O,O′-diethyl-O-3,5,6-trichloro-2-pyridinyl phosphate]
BChE in rat heart; heart and cortex, both age groups
  Sensitivity of BChE relative to AChE to inhibition in vitro: 3.5–12 times
[1]; adult heart membranes
  [3H]Oxotremorine-M maximum displacement: 50 ± 3%
[1]; aging heart membranes
  [3H]Oxotremorine-M maximum displacement: 39 ± 4%
[2]; adult cortex membranes
  [3H]Oxotremorine-M maximum displacement: 51 ± 2%
[2]; aging cortex membranes
  [3H]Oxotremorine-M maximum displacement: 49 ± 3%
[3]
  Nature of interaction with cardiac muscarinic receptors ([3H]OXO binding sites): irreversible

## CCOP(=S)(OCC)Oc1nc(Cl)c(Cl)cc1Cl [Chlorpyrifos, O,O′-diethyl-O-3,5,6-trichloro-2-pyridinyl phosphorothioate]
[1]; heart, adult and aging rats, 30 pM-3 μM
  Displacement of [3H]OXO radioligand binding (in words): did not displace
[2]; cortex, adult and aging rats, 30 pM-3 μM
  Displacement of [3H]OXO radioligand binding (in words): did not displace
Rats [4]
  oral LD50: about 100 mg/kg
Rats [5]
  Sensitivity of aged rats to acute toxicity relative to adults: similar

## COP(=O)(OC)Oc1ccc([N+](=O)[O-])cc1 [Methyl paraoxon, O,O′-dimethyl-p-nitrophenyl-phosphate]
AChE in rat heart
  Sensitivity of AChE relative to BChE to inhibition: ~ 2 fold
[1]; adult heart membranes
  [3H]Oxotremorine-M maximum displacement: 37 ± 3%
[1]; aging heart membranes
  [3H]Oxotremorine-M maximum displacement: 29 ± 3%
[2]; adult cortex membranes
  [3H]Oxotremorine-M maximum displacement: 33 ± 2%
[2]; aging cortex membranes
  [3H]Oxotremorine-M maximum displacement: 36 ± 2%
[2]; aging versus adult cortex
  [3H]OXO displacement IC50 in aging cortex, fold higher than adult cortex: ~ 10 fold

## COP(=S)(OC)Oc1ccc([N+](=O)[O-])cc1 [Methyl parathion, O,O′-dimethyl-p-nitrophenyl-phosphorothioate]
[1]; adult heart membranes
  [3H]Oxotremorine-M maximum displacement: 31 ± 3%
[1]; aging heart membranes
  [3H]Oxotremorine-M maximum displacement: 26 ± 2%
[2]; adult cortex membranes
  [3H]Oxotremorine-M maximum displacement: 22 ± 3%
[2]; aging cortex membranes
  [3H]Oxotremorine-M maximum displacement: 20 ± 3%
[3]
  Nature of interaction with cardiac muscarinic receptors ([3H]OXO binding sites): reversibly
Rats [4]
  oral LD50: about 20 mg/kg

## CC(C)NP(=O)(NC(C)C)OP(=O)(NC(C)C)NC(C)C [iso-OMPA, tetraisopropylpyrophosphoramide]
BChE in rat heart
  IC50: 200 nM
BChE in rat heart; adult and aging, heart versus cortex
  IC50 against BChE in heart, fold lower than in cortex: ~ 10 fold

## CCOP(=S)(OCC)Oc1ccc([N+](=O)[O-])cc1 [parathion]
Rats [5]
  Sensitivity of aged rats to acute toxicity relative to adults: 3 fold
